Test results published in patent US20180085386A1, “URIDINE MONOPHOSPHATE AND TRIPHOSPHATE DERIVATIVES, COMPOSITIONS AND METHODS OF USE” (Tufts University, priority 2016, published 2018).

What was measured:
[1] = system: THP-1 cells; experiment: Cytokine release from human THP-1 cells (multiplex analysis of culture medium); assay type: cell-based; conditions: FIG. 19
Protocol: THP-1 cells, a human cell line derived from monocytes, were treated in vitro with vehicle, the P2Y6 receptor antagonist MRS 2578, or compound 5, singly or in combination. THP-1 cells were seeded in 24 well plates at a density of 4×10^5 cells/well in culture medium for 24 hours. Thereafter, vehicle, compound 5, or MRS 2578 (singly or in combination) were added to the cultures for 24 hours. Subsequently the culture medium was aspirated and subjected to multiplex cytokine analysis. Data are presented as means+/−sem. MRS 2578 has a molecular weight of about 472 and is also described using CAS number 711019-86-2.

[2] = system: PSAPP mice; experiment: Plaque load in cortex and hippocampus by amyloid beta immunostaining; assay type: in vivo, mouse
Protocol: PSB0474 was systemically administered to PSAPP mice via intraperitoneal injection for 2, 4 and 6 consecutive days. In one group, prior to evaluation and following to administration for 6 consecutive days, treatment was suspended for two weeks (6+2 weeks group). Brains were then fixed and plaque load was evaluated by immunostaining with the amyloid beta specific antibodies: β1-40 and β1-42. Representative images of plaque load in cortex and hippocampus from animals that received injections of PSB0474 according to the foregoing injection schedules are shown in FIGS. 1(A)-(D). […] Whereas, when administration of PSB0474 was stopped for 2 weeks following six consecutive days of treatment (denoted as the 6+2 weeks group), β1-40 staining rebounded; although to a level lower than observed in mice treated with saline as a vehicle control. […] FIGS. 2C-2F depict data obtained following administration of different dosages of PSB0474.
To generate these graphs showing plaque load, mice were euthanized, brain sections cut and antibodies directed against Aβ42 were used to disclose Aβ plaques. Images were acquired digitally and an algorithm was applied to threshold the image so that plaques were isolated from the background. The algorithm then calculated the percent area of the field of view occupied by the plaques.
Brain samples were collected for Abeta analysis with immunostaining. Brains samples were collected after transcardial perfusion with phosphate buffer and 4% paraformaldehyde. Floating brain sections (40 micron) were collected using a microtome. Immunostaining for […] and Aβ42 were performed according to previously established protocol. Images with DAB staining were collected with brightfield microscopy and analyzed with ImageJ Macro. All data analysis and statistics were performed in GraphPad Prism 6.0.
(§1) In this study, treatment of PSAPP mice commenced when the mice were pre-symptomatic. Specifically, treatment was initiated when the mice were approximately 3 months old. PSAPP mice were treated for 100 days with daily, intraperitoneal injections of 10 μg/kg of compound 5 or vehicle. Following treatment, mice were assessed in a fear conditioning task for memory formation. Subsequently, plaque burden in the mice was also evaluated. The data provided in Examples 16 and 17 is for 19 vehicle treated mice and 22 compound treated mice. The data provided for the vehicle-treated group is the average across those mice, and error bars depict the standard error (SEM). Similarly, the data provided for the compound-treated group is the average across those mice, and the error bars depict the SEM.
as §1, with “assessed for the following: concentration of circulating pro-inflammatory cytokines; amyloid beta load (e.g., plaque burden); and memory” for “assessed”, “formation.” for “formation. Subsequently, plaque burden in the mice was also evaluated.”, “Example 18” for “Examples 16 and 17”, “18” for “19”, “20” for “22”, “SEM. Mice were first evaluated in the fear conditioning task experiment. Subsequently, plasma was taken for multiplex cytokine analysis of circulating levels of cytokine in the plasma. Finally, plaque burden was assessed in the cortex and hippocampus of the mice.” for “SEM.”
In this study, treatment of PSAPP mice commenced after the mice were already symptomatic. Specifically, treatment was initiated when the mice were approximately 6 months old. […]

In the case of `O=c1ccn([C@@H]2O[C@H](CO)C(O)C2O)c(=O)n1Cc1noc2ccccc12` (stereo in doubt) [compound 5], the “effect of compound 5 on release of IL-7” value ([1]; co-treatment with MRS 2578) is reported as “abrogated”, the “release of IL-7 into culture media” value ([1]; compound 5 10 nM, 24 hours, vs vehicle) is reported as “decreased” and the plaque size ([2]; 10 μg/kg i.p. daily for 7 days from ~6 months, Example 20, FIG. 17(B)) is reported as “decrease”. For the same compound, the “Amyloid beta accumulation in the cortex” value ([2]; 10 μg/kg i.p. daily for 7 days from ~6 months, using Aβ40, Example 20, FIG. 17(A) upper panel) was “decreased”, the “Amyloid beta accumulation in the hippocampus” value ([2]; 10 μg/kg i.p. daily for 7 days from ~6 months, using Aβ42, Example 20, FIG. 17(A) lower panel) was “decreased” and the plaque burden ([2]; 10 μg/kg i.p. daily for 100 days from ~3 months of age, vs vehicle, Example 17, FIG. 9) was “reduced”. For the same compound, the “Amyloid beta accumulation in the cortex” value ([2]; 10 μg/kg i.p. daily for 100 days from ~3 months, vs vehicle, Example 19, FIG. 15(A)) was “decreased”, the “Amyloid beta accumulation in the hippocampus” value ([2]; 10 μg/kg i.p. daily for 100 days from ~3 months, vs vehicle, Example 19, FIG. 15(B)) was “decreased” and the “size distribution of remaining plaques” value ([2]; 10 μg/kg i.p. once per day for 7 days, PS1/APP mice 26 weeks) was “significantly reduced”. The Aβ40 plaque burden ([2]; 10 μg/kg i.p. once per day for 7 days, PS1/APP mice 26 weeks, cortex, FIG. 6A) was “significantly reduced”.
